Source: patent publication US20220152090A1, “METHOD FOR TREATING AMYLOIDOGENIC DISEASE” (priority 2020, published 2022)

Legend:
SH-SY5Y cells = test: Cell viability (CCK8) of Aβ42-treated neuronal cells; format: cell-based
Method: The general procedures used for preparing the transient LPS-Aβ42 complex and the validation of cell cytotoxicity were as follows. First, Aβ42 (100 μM) and LPS (1000 nM, derived from Escherichia coli O111:B4, Sigma-Aldrich) were added to each group medium containing 2.5% dimethyl sulfoxide (DMSO) and then sterilized by using UV light. The medium was then replaced and the remaining mixture was incubated for 72 hours at 37° C. in 5% CO2 humidified air. Cell viability was measured using the CCK8 (Sigma-Aldrich 96992) assay according to the manufacturer's protocol. A 0.22-μm filter (non-pyogenic, Millex®-GV) was used to remove unbound LPS, if needed, in the LPS-Aβ42 solution.
Cell viability. Neural cells were maintained in MEM (Gibco 11095-080) supplemented with 10% FBS and 1×MEM NEAA (Gibco 11140-050). Neural SH-SY5Y cells were plated at a density of 8000 cells per well in 96-well plates (Costar 3599) and allowed to attach overnight at 37° C. in 5% CO2 humidified air. Aβ42 (100 μM), LPS (1000 nM), SAuM (1000 nM), or colistin (1000 nM) were then added to each group medium containing 2.5% dimethyl sulfoxide (DMSO) and sterilized by using UV light. The medium was then replaced every day and the remaining mixture was incubated for 72 hours at 37° C. in 5% CO2 humidified air. Cell viability was measured using the CCK8 (Sigma-Aldrich 96992) assay according to the manufacturer's protocol. A 0.22-μm filter (non-pyogenic, Millex®-GV) was used to remove unbound LPS, if needed, in the LPS-Aβ42 solution.

Aβ42 = target: T1, Aβ42 (Homo sapiens, UniProt P05067); test: Western blot of Aβ42 degradation in SH-SY5Y cells; format: cell-based; conditions: for LPS-induced degradation of Aβ42 in the presence of inhibitor: SH-SY5Y; for Aβ42 degradation in SH-SY5Y cells co-treated with the agent: Western blotting, FIG. 13
T1 construct: Aβ42 peptides were collected from the entire volume of the cell culture medium and total cell lysates; host or cells: Peptide added to the medium of SH-SY5Y cells; not made by the cells
T1 sequence (P05067 672-713 limits assumed): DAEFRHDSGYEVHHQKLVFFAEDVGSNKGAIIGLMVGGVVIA
Method: Western Blots. To assess the level of Aβ42 in the cell culture medium, Aβ42 peptides were collected from the entire volume of the cell culture medium and total cell lysates and mixed with protein sample buffer (final 0.1 M Tris-HCl, pH6.8, 10% glycerol, 2% SDS, 1% […], and 0.01% bromophenol blue) for Western blot analysis. The samples of cell mixture were analyzed by SDS-PAGE gel electrophoresis and transferred to a PVDF membrane (Millipore). After blocking with blocking buffer containing 5% w/v nonfat dry milk in PBST (1× phosphate-buffered saline and 0.1% Tween 20) at room temperature for 1 h, the membrane was incubated with a primary antibody diluted in the blocking buffer at 4° C. overnight. After hybridization with primary antibody, the membrane was washed three times with PBST before the addition of an HRP-conjugated secondary antibody against the primary antibody. The membrane was then washed three times with PBST before immunoreactive bands were detected by chemiluminescence (PerkinElmer) or Ponceau S staining (Bersting Technology).

Row | Molecule | rescue effect of LPS against Aβ42 neuronal toxicity in the presence of inhibitor (SH-SY5Y cells) | LPS-induced degradation of Aβ42 in the presence of inhibitor (Aβ42) | Aβ42 degradation in SH-SY5Y cells co-treated with the agent (Aβ42)
1 | Cn1cnc(=N)c2[nH]cnc21 [3MA, methyladenine] | increasing the cell death | decreasing the degradation of Aβ42 | –
2 | CO/C1=C\C(C)=C\[C@@H](C)[C@@H](O)[C@@H](C)C/C(C)=C/C=C/[C@H](OC)[C@@H]([C@@H](C)[C@@H](O)[C@H](C)[C@@]2(O)C[C@@H](O)[C@H](C)[C@@H](C(C)C)O2)OC1=O [BA, bafilomycin A1] | increasing the cell death | decreasing the degradation of Aβ42 | –
3 | CCCCCCCCCCC[C@@H](O)CC(=O)N[C@H]1[C@H](OC[C@H]2O[C@H](OP(=O)(O)O)[C@H](NC(=O)C[C@H](O)CCCCCCCCCCC)[C@@H](OC(=O)C[C@H](O)CCCCCCCCCCC)[C@@H]2O)O[C@H](CO)[C@@H](OP(=O)(O)O)[C@@H]1OC(=O)C[C@H](O)CCCCCCCCCCC [PIX, 2-deoxy-6-O-(2-deoxy-3-O-[(3R)-3-hydroxytetradecanoyl]-2-{[(3R)-3-hydroxytetradecanoyl]amino}-4-O-phosphono-β-D-glucopyranosyl)-3-O-[(3R)-3-hydroxytetradecanoyl]-2-{[(3R)-3-hydroxytetradecanoyl]amino}-1-O-phosphono-α-D-glucopyranose] | – | – | able to cause Aβ42 degradation
4 | CCCCCCCCCCC[C@@H](O)CC(=O)N[C@H]1[C@H](OC[C@H]2OC(O)[C@H](NC(=O)C[C@H](O)CCCCCCCCCCC)[C@@H](OC(=O)C[C@H](O)CCCCCCCCCCC)[C@@H]2O)O[C@H](CO)[C@@H](OP(=O)(O)O)[C@@H]1OC(=O)C[C@H](O)CCCCCCCCCCC (stereo partly drawn) [PXI, 2-deoxy-6-O-(2-deoxy-3-O-[(3R)-3-hydroxytetradecanoyl]-2-{[(3R)-3-hydroxytetradecanoyl]amino}-4-O-phosphono-β-D-glucopyranosyl)-3-O-[(3R)-3-hydroxytetradecanoyl]-2-{[(3R)-3-hydroxytetradecanoyl]amino}-D-glucopyranose] | – | – | able to cause Aβ42 degradation
5 | CN(C)CCCN1c2ccccc2Sc2ccc(Cl)cc21 [chlorpromazine] | – | suppressed | –
6 | O=C(N/N=C/c1ccc(O)c(O)c1)c1cc2ccccc2cc1O [dynasore] | – | suppressed | –
7 | Monophosphoryl lipid A [MPL] | – | – | able to cause Aβ42 degradation
8 | colistin | abolished | – | –
9 | methyl-β-cyclodextrin | – | suppressed | –
